# Test results: publication PMC3117672 (ChemMedChem, 2010)
# Biological target: mPTPB (Mycobacterium tuberculosis, UniProt I6WXK4)
# Settings: read-out: IC50 for mPTPB; pH 7
# Sequence of mPTPB (I6WXK4 whole entry, looked up): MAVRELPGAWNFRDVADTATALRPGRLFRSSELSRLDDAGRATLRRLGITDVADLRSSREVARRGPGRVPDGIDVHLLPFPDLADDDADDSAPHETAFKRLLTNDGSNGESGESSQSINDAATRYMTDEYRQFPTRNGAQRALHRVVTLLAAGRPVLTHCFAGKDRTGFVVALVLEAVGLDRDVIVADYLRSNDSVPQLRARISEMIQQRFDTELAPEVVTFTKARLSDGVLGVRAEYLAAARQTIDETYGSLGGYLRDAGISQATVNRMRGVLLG
smiles,measurement,value
C#CCOc1c(C(=O)O)cc2cc(Cl)cc(OCC#C)c2c1Cl [Compound L5],IC50,75 µM
